The values below come from patent US11746133B2, “Cell penetrating peptides that inhibit IRF5 nuclear localization” (Rutgers, The State University of New Jersey, priority 2015, dated 2023).

Residues, ends and D or L forms follow the SMILES beside them.

Series [1] concerns Ramos B cells. The series is described as follows: Propidium iodide staining to quantify cell death after inhibitor titration. The class given is cell-based, human. The note with it: 25 uM FITC-conjugated inhibitor, 2 hours. As to the method:
Peptide inhibitor titration and uptake. Ramos B cells or THP1 cells were treated with 0.025, 0.25, 2.5, and 25 uM of FITC conjugated peptide inhibitors for 2 hours. Cells were washed, stained with propidium iodide, and immediately analyzed by flow cytometry for uptake of FITC peptide. For uptake experiments in PBMCs, cells were incubated with 10 uM of either mock, scrambled, N-term′ NLS, or C-term′ NLS FITC conjugated inhibitor for 2 hours. Cells were then washed and blocked as previously outlined, and subsequently stained with CD19-BV510 and CD14-PE (Biolegend Catalog #301806). Cells were fixed, stained with DRAQ5 nuclear dye and analyzed by imagestream for uptake of FITC peptide.
IRF5 Peptide Inhibitors readily enter the cell and have low associated toxicity. IRF5 peptide inhibitors were conjugated to FITC moieties to measure cellular uptake over a dose-dependent response. Ramos B cells were treated with increasing concentrations of FITC-conjugated inhibitor for 2 hours. Cells were washed and subsequently treated with propidium iodide to quantify cell death. […] Cell cycle was measured through propidium iodide incorporation, and quantified through flow cytometry. […] To determine if it would be possible to increase uptake of the inhibitor in B cells, uptake following incubation with 10 uM for 1 hour was measured.

The test system of series [2] is Ramos B cells. The experiment in a line: Tryphan blue staining for cell viability after 24 hours with inhibitor. The note with it: 25 uM. The class given is cell-based, human. As to the method: IRF5 Peptide Inhibitors readily enter the cell and have low associated toxicity. IRF5 peptide inhibitors were conjugated to FITC moieties to measure cellular uptake over a dose-dependent response. Ramos B cells were treated with increasing concentrations of FITC-conjugated inhibitor for 2 hours. Cells were washed and subsequently treated with propidium iodide to quantify cell death. While at the lower doses of 0.025 and 0.25 uM minimal uptake was seen, at 2.5 uM however, greater than 95% of cells were positive for the FITC-conjugated inhibitor (FIG. 1A). In addition, less than 3% of cells stained positive for propidium iodide, indicating low toxicity for the inhibitor at this dose. […] However, no significant increase in uptake was seen between 2.5 uM and 25 uM concentrations of inhibitor. To ensure no impact on cell viability from treatment with the inhibitors, Ramos B cells were treated with varying concentrations of inhibitor as used previously for the titration experiments for 24 hours, and tryphan blue staining was subsequently performed. […] Cell cycle was measured through propidium iodide incorporation, and quantified through flow cytometry. […] To determine if it would be possible to increase uptake of the inhibitor in B cells, uptake following incubation with 10 uM for 1 hour was measured.

Series [3] addresses T1, IRF5 (Homo sapiens, UniProt Q13568).
T1 construct: endogenous in cells; host or cells: healthy-donor human PBMCs; CD14+ monocytes and CD19+ B cells
T1 sequence (Q13568 1-498): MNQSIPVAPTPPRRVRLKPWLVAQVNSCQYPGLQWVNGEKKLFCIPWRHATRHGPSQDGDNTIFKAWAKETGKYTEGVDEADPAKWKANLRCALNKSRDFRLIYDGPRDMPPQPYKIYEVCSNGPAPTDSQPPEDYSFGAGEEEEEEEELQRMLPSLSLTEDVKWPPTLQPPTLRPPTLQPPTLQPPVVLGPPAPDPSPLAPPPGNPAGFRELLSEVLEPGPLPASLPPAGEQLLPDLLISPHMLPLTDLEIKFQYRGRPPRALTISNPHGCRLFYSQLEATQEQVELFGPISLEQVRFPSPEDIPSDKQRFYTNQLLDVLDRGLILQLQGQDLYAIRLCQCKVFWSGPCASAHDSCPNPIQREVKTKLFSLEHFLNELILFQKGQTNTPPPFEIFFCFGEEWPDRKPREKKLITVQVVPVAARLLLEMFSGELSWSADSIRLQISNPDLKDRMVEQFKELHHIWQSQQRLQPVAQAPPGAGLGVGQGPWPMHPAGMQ
The experiment in a line: R848-induced IRF5 nuclear translocation in PBMCs by imaging flow cytometry. The class given is cell-based. Particulars: inhibitor 1 hour, then 500 ng/mL R848 2 hours, vs scrambled control. As to the method: FIGS. 2A-E. Peptides (non-FITC-conjugated) inhibit R848-induced IRF5 nuclear translocation. Healthy donor PBMCs were pre-incubated with peptide inhibitors for 1 hour and then stimulated for 2 hours with the Toll-like receptor agonist R848. IRF5 cellular localization was determined in CD14+ monocytes (FIG. 2A) and CD19+ B cells (FIG. 2B) by staining with intracellular IRF5 and DRAQ5. Similarity scores between IRF5 and DRAQ5 were determined on the Amnis Imagestream using IDEAS software. […] Lamin B1 serves as a nuclear protein loading control. Cells were pre-incubated with the indicated inhibitors for 1 hour and then stimulated with LPS for 2 hours. […] IRF5 band intensity was normalized by Lamin B1, and relative fold change of IRF5 in nuclear portion was calculated over PBS treated sample. […]
Imaging Flow Cytometry. […] Nuclear translocation was quantified in the Amnis IDEAS software suite. […] Finally, IRF5 nuclear translocation was determined through use of the similarity score feature contrasting IRF5 staining with DRAQ5 staining. […]
IRF5 peptide inhibitor blocks IRF5 nuclear translocation in both B cells and monocytes. […] As IRF5 has been implicated in the onset of autoimmune diseases in both monocytes and B cells, it was sought to be determined if IRF5 nuclear translocation could be inhibited in both cell populations following stimulation with the TLR7 agonist R848. […]
For orientation: A flow cytometer gives signals particle by particle.

The target of series [4] is T1, IRF5. The series is described as follows: Cell fractionation and Western blot of nuclear IRF5 in primary monocytes. The format is cell-based. The note with it: isolated primary monocytes, inhibitor then R848 stimulation. Here is the method:
FIGS. 2A-E. Peptides (non-FITC-conjugated) inhibit R848-induced IRF5 nuclear translocation. Healthy donor PBMCs were pre-incubated with peptide inhibitors for 1 hour and then stimulated for 2 hours with the Toll-like receptor agonist R848. IRF5 cellular localization was determined in CD14+ monocytes (FIG. 2A) and CD19+ B cells (FIG. 2B) by staining with intracellular IRF5 and DRAQ5. Similarity scores between IRF5 and DRAQ5 were determined on the Amnis Imagestream using IDEAS software. […] Lamin B1 serves as a nuclear protein loading control. […] IRF5 band intensity was normalized by Lamin B1, and relative fold change of IRF5 in nuclear portion was calculated over PBS treated sample. In FIGS. 2A-B and E, the bar on the left is mock (NT) and the bar on the right is R848.
Cell Fractionation. Cells were fractionated according to manufacturer's protocol (Cell Signaling, Cell fractionation kit, #9038). Following fractionation, lysates were sonicated and boiled. Nuclear fraction was analyzed by Western blot as follows: 30 μL of lysate was loaded onto a 3-8% NuPAGE® Novex® Tris-Acetate gel (Life Technologies, #EA0378BOX), and transferred onto a 0.45 μm nitrocellulose membrane (Bio-Rad Laboratories). […] Membrane was incubated with Clarity™ ECL Western Blotting Substrate (Bio-Rad Laboratories) and chemiluminescence detected with a ChemiDoc™ MP Imaging System (Bio-Rad Laboratories). […]
Background: In western blotting, separated proteins are transferred to a membrane and probed.

Regarding `CC[C@H](C)[C@H](NC(=O)[C@H](CCCCN)NC(=O)[C@@H](NC(=O)[C@H](CCC(N)=O)NC(=O)[C@H](CCCNC(=N)N)NC(=O)[C@@H](N)CC(=O)O)[C@@H](C)CC)C(=O)N[C@@H](Cc1c[nH]c2ccccc12)C(=O)N[C@@H](Cc1ccccc1)C(=O)N[C@@H](CCC(N)=O)C(=O)N[C@@H](CC(N)=O)C(=O)N[C@@H](CCCNC(=N)N)C(=O)N[C@@H](CCCNC(=N)N)C(=O)N[C@@H](CCSC)C(=O)N[C@@H](CCCCN)C(=O)N[C@@H](Cc1c[nH]c2ccccc12)C(=O)N[C@@H](CCCCN)C(=O)N[C@@H](CCCCN)C(=O)N1CCC[C@H]1C(=O)N[C@@H](CCCNC(=N)N)C(=O)N[C@@H](CCCNC(=N)N)C(=O)N[C@H](C(=O)N[C@@H](CCCNC(=N)N)C(=O)N[C@@H](CC(C)C)C(=O)N[C@@H](CCCCN)C(=O)O)C(C)C` [IRF5 5′NLS] (H-DRQIKIWFQNRRMKWKKPRRVRLK-OH), the “associated toxicity (propidium iodide)” value in the series with Ramos B cells [1] is listed as “minimal associated toxicity”.

Consider `CC[C@H](C)[C@H](NC(=O)[C@H](CCCCN)NC(=O)[C@@H](NC(=O)[C@H](CCC(N)=O)NC(=O)[C@H](CCCNC(=N)N)NC(=O)[C@@H](N)CC(=O)O)[C@@H](C)CC)C(=O)N[C@@H](Cc1c[nH]c2ccccc12)C(=O)N[C@@H](Cc1ccccc1)C(=O)N[C@@H](CCC(N)=O)C(=O)N[C@@H](CC(N)=O)C(=O)N[C@@H](CCCNC(=N)N)C(=O)N[C@@H](CCCNC(=N)N)C(=O)N[C@@H](CCSC)C(=O)N[C@@H](CCCCN)C(=O)N[C@@H](Cc1c[nH]c2ccccc12)C(=O)N[C@@H](CCCCN)C(=O)N[C@@H](CCCCN)C(=O)N1CCC[C@H]1C(=O)N[C@@H](CCCCN)C(=O)N[C@@H](CCCNC(=N)N)C(=O)N[C@@H](CCCNC(=N)N)C(=O)N[C@@H](CCCNC(=N)N)C(=O)N[C@@H](CC(C)C)C(=O)N[C@H](C(=O)O)C(C)C` [Scrambled 5′NLS] (H-DRQIKIWFQNRRMKWKKPKRRRLV-OH; N-terminus and C-terminus assumed), for which the “associated toxicity (propidium iodide)” value in the series on Ramos B cells [1] was “minimal associated toxicity”. In the series on Ramos B cells [2], the “viability by tryphan blue staining” value was “decrease in viability”.

Regarding DRQIKIWFQNRRMKWKKPREKKLI [IRF5 3′NLS], in the series with IRF5 [3], the “IRF5 nuclear translocation in B cells” value is “no inhibition” and the “IRF5 nuclear translocation in monocytes” value is given as “only slightly reduced nuclear translocation”. The “levels of IRF5 in the nucleus (cell fractionation, Western blot)” value with IRF5 [4] was “Reduced levels of IRF5”.
